2 compounds from PubChem BioAssay AID2060336 (Molecular Pharmacology Branch, DTP, NCI, 2025) can be followed below.

The structures appear in SMILES notation. pIC50: −log10 of the molar value. Values joined by “and” are separate entries in the source; they are usually repeats but may differ in a detail not shown here. Equal entries are not always repeated.

The test system of the assay is 958767-090-R-J1-PDC spheroid growth. The assay can be described thus: Anticancer human tumor 958767-090-R-J1-PDC patient-derived head and neck squamous carcinoma cell line growth inhibition [IpAb]. The following applies: spheroids with HUVEC and MSC; for viability, T/C: stronger effect = lower value. The procedure, abridged: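 Multi-cell spheroids of 60% tumour cells, 25% HUVEC and 15% MSC in ultra-low-attachment U-bottom wells, treated with agents combined with ipatasertib or abemaciclib. Half-log ranges top out near clinical Cmax, or 10 microM when Cmax is unknown.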
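Also: spheroids exposed to agents for 7 days.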
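For viability, T/C in this document: 100% = DMSO vehicle control wells.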

Take `CCCS(=O)(=O)Nc1ccc(F)c(C(=O)c2c[nH]c3ncc(-c4ccc(Cl)cc4)cc23)c1F` + CC(C)NCC(C(=O)N1CCN(c2ncnc3c2C(C)CC3O)CC1)c1ccc(Cl)cc1: the pIC50 is, setting by setting: (curve of first compound, second compound 0.1 µM) less than 5.00; (curve of first compound, second compound 0.316 µM) 5.04; (curve of first compound, second compound 1 µM) 5.27; (curve of first compound, second compound 3.16 µM) 5.40; (curve of first compound, second compound 10 µM) greater than 7.50. Also, the viability, T/C was 93.3% (second compound 0.1 µM, first compound 0.0316 µM); 89.6% (second compound 0.1 µM, first compound 0.1 µM); 94.7% (second compound 0.1 µM, first compound 0.316 µM); 95.9% (second compound 0.1 µM, first compound 1 µM); 86.9% (second compound 0.1 µM, first compound 3.16 µM); 73.9% (second compound 0.1 µM, first compound 10 µM). Besides, the viability, T/C is, setting by setting: (second compound 0.316 µM, first compound 0.0316 µM) 67.9%; (second compound 0.316 µM, first compound 0.1 µM) 78.2%; (second compound 0.316 µM, first compound 0.316 µM) 74.1%; (second compound 0.316 µM, first compound 1 µM) 59.6%; (second compound 0.316 µM, first compound 3.16 µM) 72.5%; (second compound 0.316 µM, first compound 10 µM) 48.2%. In addition, the viability, T/C runs as follows: (second compound 1 µM, first compound 0.0316 µM) 68.4%; (second compound 1 µM, first compound 0.1 µM) 61.2%; (second compound 1 µM, first compound 0.316 µM) 59.8%; (second compound 1 µM, first compound 1 µM) 60.2%; (second compound 1 µM, first compound 3.16 µM) 60.8%; (second compound 1 µM, first compound 10 µM) 37.7%. Besides, the viability, T/C (second compound 3.16 µM, first compound 0.0316 µM) is 59.6%; the viability, T/C (second compound 3.16 µM, first compound 0.1 µM) is 56.9%; the viability, T/C (second compound 3.16 µM, first compound 0.316 µM) is 51%; the viability, T/C (second compound 3.16 µM, first compound 1 µM) is 51.7%; the viability, T/C (second compound 3.16 µM, first compound 3.16 µM) was 54.4%; the viability, T/C (second compound 3.16 µM, first compound 10 µM) was 32.7%. The viability, T/C is 46.1% (second compound 10 µM, first compound 0.0316 µM); 50.3% (second compound 10 µM, first compound 0.1 µM); 54.9% (second compound 10 µM, first compound 0.316 µM); 42.3% (second compound 10 µM, first compound 1 µM); 40.8% (second compound 10 µM, first compound 3.16 µM); 14.6% (second compound 10 µM, first compound 10 µM).
For the compound `Cn1cnc2c(F)c(Nc3ccc(Br)cc3Cl)c(C(=O)NOCCO)cc21`, the viability, T/C runs as follows: (compound 0.00949 µM) 73% and 64.2%; (compound 0.03 µM) 48.8% and 52.3%; (compound 0.0949 µM) 32.5% and 42.5%; (compound 0.3 µM) 30.8% and 35.8%; (compound 0.949 µM) 31% and 28.7%; (compound 3 µM) 17.2% and 19.8%. For the same compound, the pIC50 (curve of compound) is 7.55 and 7.36.

One may read the pIC50 as the IC50 on a negative log10 scale, so that one unit is a factor of ten. What is called viability, T/C is the ratio of treated to control.
